± gives the standard deviation of the averaged measurements.
Key:
Assay in all cases: level (log10 ratio to DMSO vehicle control); higher = higher biomarker level / cell amount than vehicle control
Perfluoro-1-iodohexane = compound: FC(F)(F)C(F)(F)C(F)(F)C(F)(F)C(F)(F)C(F)(F)I [Perfluoro-1-iodohexane]; conditions: in DMSO
Method: (§1)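 BioMAP Diversity Plus panel of 12 human primary cell co-culture systems (3C, 4H, LPS, SAg, BT, BF4T, BE3C, CASM3C, HDF3CGF, KF3CT, MyoF, Mphg). Compounds were added 1 h before stimulation and left for 24 h (MyoF 48 h; BT 72 h for soluble read-outs or 6 d for IgG). Biomarkers were read by ELISA, cytotoxicity by SRB, PBMC viability and proliferation by Alamar Blue. Each well value was divided by the mean of 8 DMSO control wells on the same plate and log10 transformed; duplicate blinded samples were tested at 4 concentrations.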

Perfluorobutanoic acid = compound: O=C(O)C(F)(F)C(F)(F)C(F)(F)F [Perfluorobutanoic acid]; conditions: in DMSO
Method: as §1

[1] = compound: FC(F)(F)C(F)(F)C(F)(F)C(F)(F)C(F)(F)C(F)(F)C(F)(F)C(F)(F)CCS [2-(Perfluorooctyl)ethanthiol]; conditions: in DMSO
Method: as §1

[2] = compound: FC(F)(F)C(F)(C(F)(F)F)C(F)(F)C(F)(F)CC1CO1 [3-(Perfluoro-3-methylbutyl)-1,2-propenoxide]; conditions: in DMSO
Method: as §1

Perfluoroheptanoic acid = compound: O=C(O)C(F)(F)C(F)(F)C(F)(F)C(F)(F)C(F)(F)C(F)(F)F [Perfluoroheptanoic acid]; conditions: in DMSO
Method: as §1

[3] = compound: O=C(O)C(F)(F)C(F)(F)C(F)F [4H-Perfluorobutanoic acid]; conditions: in DMSO
Method: as §1

[4] = compound: O=C(O)C(F)(F)C(F)(F)C(F)(F)C(F)(F)C(F)(F)C(F)(F)C(F)(F)C(F)F [9-H-Perfluorononanoic acid]; conditions: in DMSO
Method: as §1

[5] = compound: OCCCC(F)(F)C(F)(F)C(F)(F)C(F)(F)C(F)(F)C(F)(F)C(F)(F)F [7:3 Fluorotelomer alcohol]; conditions: 6700 nM; in DMSO
Method: as §1

| Test System | level (log10) (Perfluoro-1-iodohexane; 6700 nM) | level (log10) (Perfluoro-1-iodohexane; 20000 nM) | level (log10) (Perfluoro-1-iodohexane; 60000 nM) | level (log10) (Perfluorobutanoic acid; 6700 nM) | level (log10) (Perfluorobutanoic acid; 20000 nM) | level (log10) (Perfluorobutanoic acid; 60000 nM) | level (log10) ([1]; 6700 nM) | level (log10) ([1]; 20000 nM) | level (log10) ([2]; 6700 nM) | level (log10) ([2]; 20000 nM) | level (log10) (Perfluoroheptanoic acid; 6700 nM) | level (log10) (Perfluoroheptanoic acid; 20000 nM) | level (log10) (Perfluoroheptanoic acid; 60000 nM) | level (log10) ([3]; 6700 nM) | level (log10) ([3]; 20000 nM) | level (log10) ([3]; 60000 nM) | level (log10) ([4]; 6700 nM) | level (log10) ([4]; 20000 nM) | level (log10) ([4]; 60000 nM) | level (log10) [5] |
| --- | --- | --- | --- | --- | --- | --- | --- | --- | --- | --- | --- | --- | --- | --- | --- | --- | --- | --- | --- | --- |
| SAg:CD40 | -0.019 ± 0.013 | -0.0195 ± 0.018 | 0.012 ± 0.061 | -0.0055 ± 0.026 | -0.014 ± 0.02 | -0.0015 ± 0.0092 | 0.0105 ± 0.011 | 0.006 ± 0.011 | -0.018 ± 0.025 | -0.0205 ± 0.039 | -0.015 ± 0.027 | -0.006 ± 0.0028 | -0.021 ± 0.018 | 0 ± 0.0028 | -0.056 ± 0.045 | -0.028 ± 0.044 | -0.0265 ± 0.012 | -0.0275 ± 0.016 | -0.059 ± 0.02 | -0.031 ± 0.0057 |
| BT:Secreted IgG | 0.0195 ± 0.023 | -0.0165 ± 0.043 | -0.0315 ± 0.081 | 0.017 ± 0.0028 | -0.02 ± 0.035 | 0.0055 ± 0.022 | 0.02 ± 0.0071 | 0.016 ± 0.0014 | -0.007 ± 0.064 | 0.016 ± 0.09 | 0.0185 ± 0.0092 | 0.007 ± 0.027 | -0.0365 ± 0.011 | 0.0315 ± 0.036 | 0.0205 ± 0.03 | 0.014 ± 0.041 | 0.038 ± 0.0071 | -0.011 ± 0.031 | 0.0485 ± 0.019 | -0.0105 ± 0.028 |
| BE3C:CD87/uPAR | 0.0165 ± 0.018 | 0.0035 ± 0.00071 | 0.0465 ± 0.026 | -0.012 ± 0.0099 | 0.0015 ± 0.013 | -0.015 ± 0.013 | 0.009 ± 0.014 | 0.027 ± 0.0042 | 0.01 ± 0.011 | -0.008 ± 0.0057 | -0.0275 ± 0.026 | -0.049 ± 0.033 | -0.05 ± 0.054 | -0.003 ± 0.013 | -0.0175 ± 0.019 | 0.0015 ± 0.005 | 0.0155 ± 0.035 | 0.0015 ± 0.0092 | 0.0325 ± 0.0021 | 0.0185 ± 0.03 |
| BF4T:CD106/VCAM-1 | -0.0055 ± 0.0035 | -0.0215 ± 0.0035 | -0.0745 ± 0.019 | -0.0185 ± 0.029 | 0.0035 ± 0.028 | 0.028 ± 0.072 | -0.003 ± 0.051 | -0.0605 ± 0.0078 | 0.0025 ± 0.03 | 0.0425 ± 0.032 | -0.0015 ± 0.029 | 0.0115 ± 0.015 | 0.029 ± 0.0099 | 0.0145 ± 0.033 | -0.0365 ± 0.054 | 0.028 ± 0.078 | -0.0885 ± 0.049 | -0.103 ± 0.058 | -0.0625 ± 0.021 | -0.0255 ± 0.0021 |
| BF4T:IL-1alpha | -0.0075 ± 0.005 | -0.0065 ± 0.012 | -0.004 ± 0.0057 | -0.0025 ± 0.029 | 0.0085 ± 0.0064 | 0.013 ± 0.014 | -0.036 ± 0.018 | -0.023 ± 0.017 | -0.016 ± 0.024 | 0.0185 ± 0.013 | -0.0085 ± 0.023 | -0.0015 ± 0.005 | 0.013 ± 0.0099 | -0.02 ± 0.0014 | -0.019 ± 0.014 | 0.0085 ± 0.012 | 0.0005 ± 0.00071 | -0.019 ± 0.0099 | 0.0055 ± 0.044 | -0.0045 ± 0.012 |
| 4H:SRB | -0.0065 ± 0.011 | -0.008 ± 0.0042 | -0.0105 ± 0.0035 | -0.02 ± 0.044 | -0.0115 ± 0.0035 | -0.007 ± 0.024 | 0.0085 ± 0.011 | -0.003 ± 0.0057 | 0 ± 0.025 | -0.019 ± 0.0071 | -0.0035 ± 0.005 | 0.0135 ± 0.026 | -0.024 ± 0.021 | -0.0085 ± 0.0092 | -0.003 ± 0.0071 | 0.0055 ± 0.0035 | 0.008 ± 0.033 | -0.0115 ± 0.025 | -0.039 ± 0.0099 | -0.0015 ± 0.0064 |
| SAg:CD69 | -0.0155 ± 0.033 | -0.017 ± 0.024 | 0.006 ± 0.0014 | -0.01 ± 0.014 | -0.0095 ± 0.03 | 0.018 ± 0.047 | -0.0165 ± 0.0092 | -0.035 ± 0.0014 | -0.0125 ± 0.015 | -0.006 ± 0.059 | -0.006 ± 0.0014 | -0.0145 ± 0.0021 | -0.008 ± 0.017 | -0.0145 ± 0.015 | -0.0165 ± 0.015 | 0.005 ± 0.027 | -0.0335 ± 0.025 | -0.034 ± 0.0085 | -0.0245 ± 0.00071 | -0.026 ± 0.018 |
| LPS:CD62E/E-Selectin | -0.0115 ± 0.0035 | -0.0175 ± 0.011 | 0.015 ± 0.023 | -0.012 ± 0.018 | -0.01 ± 0.013 | -0.0085 ± 0.005 | 0.0275 ± 0.025 | 0.013 ± 0.011 | 0.0165 ± 0.0035 | 0.0245 ± 0.025 | -0.009 ± 0.0028 | 0 ± 0.017 | 0.01 | -0.006 ± 0.013 | 0.002 ± 0.0028 | 0.0075 ± 0.011 | 0.0005 ± 0.042 | 0.003 ± 0.0071 | 0.0525 ± 0.0035 | -0.0125 ± 0.016 |
| LPS:CXCL8/IL-8 | -0.0045 ± 0.015 | 0.005 | 0.015 ± 0.017 | -0.0055 ± 0.005 | -0.0165 ± 0.00071 | 0.0095 ± 0.011 | -0.0195 ± 0.035 | 0.0235 ± 0.053 | 0.0325 ± 0.043 | 0.045 ± 0.072 | 0.0085 ± 0.033 | 0.027 ± 0.03 | 0.105 ± 0.059 | -0.0155 ± 0.019 | -0.008 ± 0.02 | 0.018 ± 0.024 | 0.046 ± 0.047 | 0.102 ± 0.021 | 0.17 ± 0.033 | -0.0305 ± 0.011 |
| BE3C:CXCL11/I-TAC | -0.0005 ± 0.0021 | 0.002 ± 0.0057 | 0.0175 ± 0.0092 | 0.007 ± 0.0099 | -0.003 ± 0.0014 | -0.0085 ± 0.015 | 0.0035 ± 0.037 | 0.0175 ± 0.035 | 0 ± 0.0057 | -0.0075 ± 0.0035 | 0.0065 ± 0.015 | -0.011 ± 0.0042 | -0.003 ± 0.0042 | -0.0015 ± 0.0064 | 0.008 ± 0.014 | 0.031 ± 0.011 | -0.01 ± 0.0085 | -0.009 ± 0.0085 | -0.036 ± 0.021 | 0.022 ± 0.017 |
| BF4T:CD90 | -0.0085 ± 0.0035 | -0.002 ± 0.018 | -0.002 ± 0.011 | -0.001 ± 0.0028 | -0.0055 ± 0.00071 | -0.0075 ± 0.0078 | -0.003 ± 0.0028 | -0.0065 ± 0.005 | -0.0175 ± 0.00071 | -0.0165 ± 0.03 | -0.01 ± 0.0042 | -0.001 ± 0.0014 | -0.0005 ± 0.0021 | 0.0045 ± 0.0035 | 0.0095 ± 0.011 | 0.01 ± 0.028 | -0.0705 ± 0.021 | -0.0605 ± 0.013 | -0.0685 ± 0.015 | -0.004 ± 0.0028 |
| LPS:SRB | -0.0025 ± 0.0064 | -0.0055 ± 0.0064 | -0.0085 ± 0.00071 | -0.006 ± 0.028 | -0.013 ± 0.0071 | -0.001 ± 0.0099 | 0.0025 ± 0.0078 | -0.003 ± 0.014 | 0 ± 0.0042 | -0.0035 ± 0.005 | -0.019 ± 0.0085 | 0.001 ± 0.0028 | -0.019 ± 0.0099 | -0.0045 ± 0.0035 | -0.0105 ± 0.0092 | 0.003 | -0.005 ± 0.016 | -0.01 ± 0.014 | -0.022 ± 0.0099 | -0.002 |
| SAg:CD38 | -0.059 ± 0.15 | -0.01 ± 0.02 | 0.0005 ± 0.076 | -0.005 | -0.013 ± 0.0085 | -0.012 ± 0.0099 | -0.036 ± 0.057 | -0.0245 ± 0.042 | -0.0005 ± 0.0021 | 0.015 ± 0.018 | -0.02 ± 0.0042 | -0.001 ± 0.0057 | -0.0225 ± 0.03 | 0.008 ± 0.028 | 0.0195 ± 0.0021 | 0.017 ± 0.021 | 0.0255 ± 0.039 | -0.015 ± 0.0085 | -0.016 ± 0.011 | 0.0245 ± 0.07 |
